# Source: patent publication US12344852B2, “Control of phenotype in plants” (GREENVENUS, LLC, priority 2016, dated 2025)
# Columns and labels:
# [1] = system: barstar gene under EcR-based switch; assay: barstar expression by qRT-PCR in leaf and floral tissues of ID06 plants; type: in vivo, Arabidopsis; conditions: 250 nM vs water
# [2] = system: IP:ChsA RNAi (ID164) transgenic Petunia plants; assay: Flower color change in IP:ChsA RNAi (ID164) transgenic petunia after ligand spray; type: in vivo, Petunia hybrida variety V26; conditions: for time to change flower color from dark purple to variegate: one application
# Source text: DNA construct ID164 (LB-IP:ChsA RNAi+35S:AP+CsVMV:NptII-RB) (SEQ ID NO:55) containing both the inducible promoter (IP) composed of 5 GAL4 regulatory elements (GAL4-RE) placed upstream of the minimal CaMV-35S promoter and the multidomain activator (AP) protein gene (VGE(E68V/V184I/Y204E) under the control of CaMV-35S promoter is shown in FIG. 20B. ID164 (SEQ ID NO:55) was used to transform wild type (wt) Petunia hybrid variety V26. The chalcone synthase hairpin transcript will not be express until the activator ligand (methoxyfenozide; Mtf) is provided to mobilize the activator proteins for binding to the GAL4-RE and switching the inducible promoter FS on. Transgene copy number was assessed for 56 TO transgenic plants by Tagman assay. 84% were low copies (two copies and below), 12.5% were high copy (three copies and above) and, few plants were nulls. Before ligand application most (98%) plants were flowering as dark purple color. Plants were divided in five groups, each group being treated differently. Treatment occurred every other day at a rate of 30 ml per plant. Treatment is sprayed on plants (leaves and flowers). Water is used as a mock treatment while INTREPID® 2F insecticide (Mtf being the active ingredient) is used as a ligand treatment. Group one was mock treated. Group two was treated with 2.5 uM Mtf in INTREPID® 2F insecticide form. Group three was treated with 1 mM Mtf (highest recommended dose on ornamental plants for INTREPID® 2F). Group four was treated with 2 mM Mtf and group five treated with 5 mM Mtf. […] When increasing the ligand concentration to 1 mM, change in flower color, dark purple to variegate, was observed faster (7 days post-treatment) on 50% of plants as shown in FIG. 23. With 2 mM and 5 mM ligand, one application (2 days post-treatment) was sufficient to change flower color from dark purple to variegate as shown in FIG. 24 and FIG. 25, respectively. Decrease in ChsA gene expression level in treated plants compared to their higher level before ligand treatment correlates with their change in flower color as shown in FIG. 21.
structure (smiles),measurement,setting,value
"COc1cccc(C(=O)NN(C(=O)c2cc(C)cc(C)c2)C(C)(C)C)c1C [methoxyfenozide, 3-methoxy-2-methylbenzoic acid 2-(3,5-dimethylbenzoyl)-2-(1,1-dimethylethyl)hydrazide]",expression of barstar,[1],dramatically increased
same,time to flower color change from dark purple to light purple,[2]; 2.5 uM,10 days post-treatment
same,plants showing flower color change from dark purple to light purple,"[2]; 2.5 uM, sprayed every other day, 30 ml per plant, INTREPID 2F form",50%
same,"plants showing change in flower color, dark purple to variegate",[2]; 1 mM,50%
same,"time to change in flower color, dark purple to variegate",[2]; 1 mM,7 days post-treatment
same,time to change flower color from dark purple to variegate,[2]; 2 mM,2 days post-treatment
same,time to change flower color from dark purple to variegate,[2]; 5 mM,2 days post-treatment
